Key:
[1] = target: T1, SSCrFCES (LPS-binding domain of C. rotundicauda Factor C, rFCES amino acids 29-330, numbered as in SEQ ID NO: 4) (Carcinoscorpius rotundicauda, UniProt Q26422); assay: ELISA-based lipid A binding assay
T1 construct: rFCES (amino acids 29-330); made in house; host or cells: Drosophila S2 cells
T1 sequence (Q26422 29-330): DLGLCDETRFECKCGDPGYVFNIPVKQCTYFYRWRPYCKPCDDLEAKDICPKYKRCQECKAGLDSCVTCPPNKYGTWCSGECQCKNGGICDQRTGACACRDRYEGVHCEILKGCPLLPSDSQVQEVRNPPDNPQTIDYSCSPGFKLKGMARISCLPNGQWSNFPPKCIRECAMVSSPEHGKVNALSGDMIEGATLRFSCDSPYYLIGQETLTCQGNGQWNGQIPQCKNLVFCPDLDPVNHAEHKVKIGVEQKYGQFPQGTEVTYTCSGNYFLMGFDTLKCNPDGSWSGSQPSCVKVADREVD
Description: A Polysorp™ 96-well plate (Nunc) was first coated with 100 μl per well of various concentrations of lipid A diluted in pyrogen-free PBS. The plate was sealed and allowed to incubate overnight at room temperature. The wells were aspirated and washed 6 times with 200 μl per wash solution (PBS containing 0.01% Tween-20 and 0.01% thimerosal). Blocking of unoccupied sites was achieved using wash solution containing 0.2% BSA for 1 hour at room temperature. Subsequently, blocking solution was removed and the wells washed as described above. Varying concentrations of SSCrFCES were allowed to interact with bound lipid A at room temperature for 2 hours.
Bound SSCrFCES was detected by sequential incubation with rabbit anti-SSCrFCES antibody (1:1000 dilution) and goat anti-rabbit antibody conjugated with HRP (1:2000 dilution) (Dako). Incubation with each antibody was for 1 h at 37° C. with washing between incubations as described above. In the final step, 100 μl of peroxide substrate ABTS (Boehringer Mannheim) was added. Using a microtiter plate reader, the absorbance of the samples was determined at 405 nm with reference wavelength at 490 nm. The values were correlated to the amount of LPS bound and SSCrFCES present. Quantitation of SSCrFCES was achieved from a standard curve derived by immobilizing known amount of purified SSCrFCES onto a Maxisorp plate.

[2] = target: T2, rFCSN (truncated C. rotundicauda Factor C, CrFC26SN, lacking the LPS-binding domain, from P. pastoris) (Carcinoscorpius rotundicauda, UniProt Q26423); assay: Modified Western blot of LPS/lipid A
T2 construct: Pichia pastoris
T2 sequence (Q26423 1-1083): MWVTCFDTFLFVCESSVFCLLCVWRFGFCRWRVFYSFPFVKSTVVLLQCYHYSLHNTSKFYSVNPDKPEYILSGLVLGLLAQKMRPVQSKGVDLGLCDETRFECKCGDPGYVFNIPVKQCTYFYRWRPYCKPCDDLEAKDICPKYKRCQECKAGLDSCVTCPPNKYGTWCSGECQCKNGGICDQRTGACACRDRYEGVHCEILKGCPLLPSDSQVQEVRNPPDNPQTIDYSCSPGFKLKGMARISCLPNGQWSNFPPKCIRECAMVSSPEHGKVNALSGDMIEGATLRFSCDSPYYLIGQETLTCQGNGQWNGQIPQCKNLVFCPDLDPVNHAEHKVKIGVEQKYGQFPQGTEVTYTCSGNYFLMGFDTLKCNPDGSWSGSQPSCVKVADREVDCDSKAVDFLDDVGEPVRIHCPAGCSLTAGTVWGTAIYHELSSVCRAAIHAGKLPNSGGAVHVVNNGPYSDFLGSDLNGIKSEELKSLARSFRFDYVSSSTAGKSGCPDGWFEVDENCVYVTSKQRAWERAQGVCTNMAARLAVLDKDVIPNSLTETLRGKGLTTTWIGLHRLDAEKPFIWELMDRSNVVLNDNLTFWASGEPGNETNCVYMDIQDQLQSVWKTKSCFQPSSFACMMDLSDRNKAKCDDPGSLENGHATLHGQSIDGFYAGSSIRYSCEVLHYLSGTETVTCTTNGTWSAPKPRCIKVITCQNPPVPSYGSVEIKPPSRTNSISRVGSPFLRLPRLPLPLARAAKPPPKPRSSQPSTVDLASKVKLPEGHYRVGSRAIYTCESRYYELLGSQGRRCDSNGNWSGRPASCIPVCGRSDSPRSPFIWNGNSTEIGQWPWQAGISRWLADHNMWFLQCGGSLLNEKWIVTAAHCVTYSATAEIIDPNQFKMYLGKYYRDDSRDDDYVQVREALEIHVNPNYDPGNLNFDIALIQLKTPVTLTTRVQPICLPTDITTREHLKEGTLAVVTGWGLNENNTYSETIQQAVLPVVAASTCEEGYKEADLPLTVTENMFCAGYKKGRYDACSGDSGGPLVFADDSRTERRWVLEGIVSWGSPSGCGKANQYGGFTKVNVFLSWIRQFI
Description: LPS from E. coli 055:B5 (Sigma) was reconstituted to 2 μg/μl, and diphosphoryl lipid A from E. coli K12, D31m4 LPS (List Biologicals, Inc., USA) was made up to 1 μg/μl. The LPS-binding assay was based on modifications of earlier described protocols (45,61). Briefly, 10 μg aliquots of LPS/lipid A were electrophoresed on a denaturing 15% SDS-polyacrylamide gel and electroblotted onto Immobilon™ PVDF membrane. The membrane was cut into strips and each LPS/lipid A strip was subsequently incubated with 300 μg of proteins containing rFC. Detection of rFC binding to lipid A was accomplished by incubation with anti-Factor C antibody followed by alkaline phosphatase-conjugated secondary goat anti-rabbit antibody (Dako) and BCIP/NBT colorimetric substrate (Moss, Inc., USA).

NH-LBP (aa 1-197) = settings: Han et al., 1994; ligand cell empty; read-out: Equilibrium constant; cited from earlier work
[3] = target: T1, SSCrFCES (LPS-binding domain of C. rotundicauda Factor C, rFCES amino acids 29-330, numbered as in SEQ ID NO: 4); settings: rFCES produced in Drosophila cells, 8 ng/μl; reference 77; cited from earlier work

lipid A
Hill's coefficient [1]: 2.2
molar ratio of bound SSCrFCES to immobilized lipid A at saturation [1]: 0.37
stoichiometry, lipid A molecules per SSCrFCES ([1]; at saturation): ~3
binding to the 7-20 kDa lipid A bands [2]: No binding
Kd (NH-LBP (aa 1-197)): 0.051 µM
saturation of immobilized lipid A [3]: 92%

Source: patent US7297551B2, “Recombinant proteins and peptides for endotoxin biosensors, endotoxin removal, and anti-microbial and anti-endotoxin therapeutics” (priority 1998, dated 2007)
